Where two headings read alike, the source gives them in different places.
How the values were obtained:
Type in all cases: in vivo
Hedyotis verticillata = assay: Field trial, herbicidal activity against Hedyotis verticillata in oil palm plantation; conditions: for inhibition at 50 g/ha: Scleromitrion verticillatum, No. 14, dose 50 g of AS/ha, read-out: Herbicidal activity (%), w. after appl.
Description: (§1) In an oil palm plantation, the economically important tropical weed Hedyotis verticillata was grown on plots of the dimensions 2×5 m under natural outdoor conditions and treated with the herbicides A1.2, B1 and C1 or their mixtures in a tank mix under standard conditions using a plot sprayer, at a water application rate of 450 liters of water per hectare (over-the-top application to the weeds; plant density initially more than 95% ground coverage). At intervals of 1, 2, 3, 4, 5, 6, 7 and 8 weeks after the application, the herbicidal efficacy of the active compounds or active compound mixtures was evaluated visually on the basis of the treated plots, in comparison with untreated control plots. The damage to and development of all above-ground parts of the plants were recorded. Evaluation was carried out using a percentage scale (100% effect=all plants killed; 50% effect=50% of the plants and the green parts of the plants killed; 0% effect=no noticeable effect=like control plot). The evaluation values of in each case 4 plots were averaged.

Asystasia intrusa = assay: Field trial, herbicidal activity against Asystasia intrusa in rubber tree plantation; conditions: for Activity (%), w. after appl.: No. 16, dose 40 g of AS/ha; for inhibition at 50 g/ha: Asystasia intrusa, No. 3, dose 50 g of AS/ha
Description: as §1
In a rubber tree plantation, plots with the tropical weed Asystasia intrusa were grown under natural outdoor conditions (dimensions of the plots 2 x 5 m). The herbicides or their mixtures in a tank mix were applied under standard conditions (over-the-top application using a plot sprayer, water application rate 450 l/ha). In intervals of 4, 7, 13, 17 and 21 weeks after the application, the herbicidal efficacy of the active compounds or their mixtures was evaluated visually on the basis of the treated plots, in comparison with untreated control plots. The damage to and the development of all above-ground parts of the plants were recorded. Evaluation was carried out as described in Example 1.

Axonopus compressus = assay: Field trial, herbicidal activity against Axonopus compressus in rubber tree plantation; conditions: for Activity (%), w. after appl.: No. 16, dose 40 g of AS/ha; for inhibition at 50 g/ha: Axonopus compressus, No. 3, dose 50 g of AS/ha
Description: as §1
In a rubber tree plantation, plots with the tropical weed Axonopus compressus were grown under natural outdoor conditions (plot dimensions 2×5 m). The herbicides or their mixtures in a tank mix were applied under standard conditions using a plot spayer at a water application rate of 450 liters of water per hectare (over-the-top application). At intervals of 4, 7, 13, 17 and 21 weeks after the application, the herbicidal efficacy of the active compounds or active compound mixtures was evaluated visually on the basis of the treated plots, in comparison with untreated control plots. The damage to and development of all above-ground parts of the plants were recorded. Evaluation was carried out as described in Example 1.

`O=C([O-])COc1ccc(Cl)cc1Cl.[Na+]` [C1, 2,4-D-sodium salt] was tested, and the “Herbicidal activity (%), w. after appl.” value (Hedyotis verticillata; No. 15, dose 40 g of AS/ha, 1 w. after appl.) was 6%, the “Herbicidal activity (%), w. after appl.” value (Hedyotis verticillata; No. 15, dose 40 g of AS/ha, 2 w. after appl.) was 5% and the “Herbicidal activity (%), w. after appl.” value (Hedyotis verticillata; No. 15, dose 40 g of AS/ha, 3 w. after appl.) was 5%. For the same compound, the “Herbicidal activity (%), w. after appl.” value (Hedyotis verticillata; No. 15, dose 40 g of AS/ha, 4 w. after appl.) was 4%, the “Herbicidal activity (%), w. after appl.” value (Hedyotis verticillata; No. 15, dose 40 g of AS/ha, 5 w. after appl.) was 0% and the “Herbicidal activity (%), w. after appl.” value (Hedyotis verticillata; No. 15, dose 40 g of AS/ha, 6 w. after appl.) was 0%. The “Herbicidal activity (%), w. after appl.” value (Hedyotis verticillata; No. 15, dose 40 g of AS/ha, 7 w. after appl.) was 0%, the “Herbicidal activity (%), w. after appl.” value (Hedyotis verticillata; No. 15, dose 40 g of AS/ha, 8 w. after appl.) was 0% and the “Herbicidal activity (%), w. after appl.” value (Hedyotis verticillata; No. 16, dose 20 g of AS/ha, 1 w. after appl.) was 6%. For the same compound, the “Herbicidal activity (%), w. after appl.” value (Hedyotis verticillata; No. 16, dose 20 g of AS/ha, 2 w. after appl.) was 5%, the “Herbicidal activity (%), w. after appl.” value (Hedyotis verticillata; No. 16, dose 20 g of AS/ha, 3 w. after appl.) was 5% and the “Herbicidal activity (%), w. after appl.” value (Hedyotis verticillata; No. 16, dose 20 g of AS/ha, 4 w. after appl.) was 1%. For the same compound, the “Herbicidal activity (%), w. after appl.” value (Hedyotis verticillata; No. 16, dose 20 g of AS/ha, 5 w. after appl.) was 0%, the “Herbicidal activity (%), w. after appl.” value (Hedyotis verticillata; No. 16, dose 20 g of AS/ha, 6 w. after appl.) was 0% and the “Herbicidal activity (%), w. after appl.” value (Hedyotis verticillata; No. 16, dose 20 g of AS/ha, 7 w. after appl.) was 0%. For the same compound, the “Herbicidal activity (%), w. after appl.” value (Hedyotis verticillata; No. 16, dose 20 g of AS/ha, 8 w. after appl.) was 0%, the “Activity (%), w. after appl.” value (Asystasia intrusa; 4 w. after appl.) was 77% and the “Activity (%), w. after appl.” value (Asystasia intrusa; 7 w. after appl.) was 67%. The “Activity (%), w. after appl.” value (Asystasia intrusa; 13 w. after appl.) was 20%, the “Activity (%), w. after appl.” value (Asystasia intrusa; 17 w. after appl.) was 10% and the “Activity (%), w. after appl.” value (Asystasia intrusa; 21 w. after appl.) was 8%. The “Activity (%), w. after appl.” value (Axonopus compressus; 4 w. after appl.) was 5%, the “Activity (%), w. after appl.” value (Axonopus compressus; 7 w. after appl.) was 5% and the “Activity (%), w. after appl.” value (Axonopus compressus; 13 w. after appl.) was 0%. The “Activity (%), w. after appl.” value (Axonopus compressus; 17 w. after appl.) was 0% and the “Activity (%), w. after appl.” value (Axonopus compressus; 21 w. after appl.) was 0%.

`CC(C)C1(C)N=C(c2ncccc2C(=O)O)NC1=O` (centres unmarked) [B1, Imazapyr] gave an inhibition at 50 g/ha (Hedyotis verticillata; 1 w. after appl.) of 8%, an inhibition at 50 g/ha (Hedyotis verticillata; 2 w. after appl.) of 5% and an inhibition at 50 g/ha (Hedyotis verticillata; 3 w. after appl.) of 5%. The inhibition at 50 g/ha (Hedyotis verticillata; 4 w. after appl.) was 5%, the inhibition at 50 g/ha (Hedyotis verticillata; 5 w. after appl.) was 10% and the inhibition at 50 g/ha (Hedyotis verticillata; 6 w. after appl.) was 13%. For the same compound, the inhibition at 50 g/ha (Hedyotis verticillata; 7 w. after appl.) was 15%, the inhibition at 50 g/ha (Hedyotis verticillata; 8 w. after appl.) was 15% and the inhibition at 50 g/ha (Asystasia intrusa; 4 w. after appl.) was 45%. The inhibition at 50 g/ha (Asystasia intrusa; 7 w. after appl.) was 40%, the inhibition at 50 g/ha (Asystasia intrusa; 13 w. after appl.) was 40% and the inhibition at 50 g/ha (Asystasia intrusa; 17 w. after appl.) was 47%. It also gave an inhibition at 50 g/ha (Asystasia intrusa; 21 w. after appl.) of 53%, an inhibition at 50 g/ha (Axonopus compressus; 4 w. after appl.) of 35% and an inhibition at 50 g/ha (Axonopus compressus; 7 w. after appl.) of 35%. It also gave an inhibition at 50 g/ha (Axonopus compressus; 13 w. after appl.) of 45%, an inhibition at 50 g/ha (Axonopus compressus; 17 w. after appl.) of 45% and an inhibition at 50 g/ha (Axonopus compressus; 21 w. after appl.) of 50%.

— patent US6436874B1, “Synergistic herbicidal agents based on leaf herbicides containing phosphorus, imidazolinones and hormone weed killers” (priority 1998, dated 2002)
